According to patent publication US10815210B2, “Benzocyclobutane derivatives useful as dual SGLT1 / SGLT2 modulators” (Janssen Pharmaceutica NV, priority 2016, dated 2020):

How the values were obtained:
human SGLT1 = molecular target: T1, human SGLT1 (Homo sapiens, UniProt P13866); assay: SGLT1 assay: Na-dependent 14C-AMG uptake in CHO-K1 cells stably expressing human SGLT1; format: cell-based; details: for IC50: 500 μM AMG, 2 hours at 37° C.
T1 construct: expressed in transfected cells; host or cells: CHO-K1
T1 sequence (P13866 1-664): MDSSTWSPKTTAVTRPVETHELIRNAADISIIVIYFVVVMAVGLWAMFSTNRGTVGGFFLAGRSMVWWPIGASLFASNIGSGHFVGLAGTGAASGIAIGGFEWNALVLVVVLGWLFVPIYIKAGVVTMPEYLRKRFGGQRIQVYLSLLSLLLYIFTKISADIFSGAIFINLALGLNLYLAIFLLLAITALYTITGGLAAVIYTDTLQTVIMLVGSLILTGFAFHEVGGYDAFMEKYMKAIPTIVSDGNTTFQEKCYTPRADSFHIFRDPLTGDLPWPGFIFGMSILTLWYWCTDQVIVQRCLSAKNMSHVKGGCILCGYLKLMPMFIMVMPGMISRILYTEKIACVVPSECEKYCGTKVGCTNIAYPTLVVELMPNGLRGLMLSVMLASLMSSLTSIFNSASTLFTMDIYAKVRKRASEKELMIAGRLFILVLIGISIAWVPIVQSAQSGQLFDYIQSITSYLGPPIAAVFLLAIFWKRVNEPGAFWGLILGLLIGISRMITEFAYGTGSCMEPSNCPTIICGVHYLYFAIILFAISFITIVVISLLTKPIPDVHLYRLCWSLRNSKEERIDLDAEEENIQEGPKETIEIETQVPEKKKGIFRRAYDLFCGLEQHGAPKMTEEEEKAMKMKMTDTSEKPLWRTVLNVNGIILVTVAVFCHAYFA
Description: (§1) SGLT1 and SGLT2 were cloned in form of cDNA from human small intestine (Genbank M24847), and from human kidney (Genbank M95549), respectively. Subsequently, each full cDNA was subcloned into pcDNA with each construct's integrity verified through follow-on sequencing. To generate CHO-K1 cells that stably express human SGLT1 or human SGLT2, CHO-K1 cells were transfected using DMRIE-C reagent (Life Technologies, Gaithersburg, Md.). Transfected cells were then selected in the presence of 500 μg/ml of the Geneticin (G418 Cellgro Catalog No. 30234-CI)
(§2) Individual clones were then characterized using the following cell-based assay for sodium-dependent glucose transport:
(§3) Inhibition of SGLT1 and SGLT2 activity was assessed in CHO K1 cells stably expressing either human SGLT1 or SGLT2, using the SGLT specific glucose analog methyl-glucopyranoside (Sigma Catalog No. M-9376). Cells were plated (45,000 cells/well) in white wall 96-well plates (COSTAR, Cat#3903) for 24 hours in growth medium, then a final concentration of 10 mM Na-Butyrate (ALDRICH Cat#30341-0) was added. The cells were incubated for 24 hours. On the day of the assay, cells were rinsed and treated with test compounds (at concentrations of 0.001 μM to 10 μM) in assay buffer (50 mM HEPES, 20 mM Tris base, 5 mM KCl, 1 mM MgCl2, 1 mM CaCl2 and 137 mM NaCl, pH 7.4) for 10 minutes. Cells were then incubated with ^14C-a-methyl-d-glucopyranoside (AMG, Amersham Catalog No. CFB 76), using 0.07 μCi per well in 500 μM AMG final concentration. The cells were incubated for 2 hours at 37° C. with 5% CO2 and washed two times with ice-cold Phosphate Buffer Solution (Cellgro Catalog No. 21030-CV). The cells were then solubilized by adding 60 μl of MICROSCINT™20 and the Na-dependent ^14C-AMG uptake was quantified by measuring radioactivity. Plates were counted in a TopCount (Packard, Meriden, Conn.)

human SGLT2 = molecular target: T2, human SGLT2 (Homo sapiens, UniProt P31639); assay: SGLT2 assay: Na-dependent 14C-AMG uptake in CHO-K1 cells stably expressing human SGLT2; format: cell-based; details: for IC50: 500 μM AMG, 2 hours at 37° C.
T2 construct: expressed in transfected cells; host or cells: CHO-K1
T2 sequence (P31639 1-672): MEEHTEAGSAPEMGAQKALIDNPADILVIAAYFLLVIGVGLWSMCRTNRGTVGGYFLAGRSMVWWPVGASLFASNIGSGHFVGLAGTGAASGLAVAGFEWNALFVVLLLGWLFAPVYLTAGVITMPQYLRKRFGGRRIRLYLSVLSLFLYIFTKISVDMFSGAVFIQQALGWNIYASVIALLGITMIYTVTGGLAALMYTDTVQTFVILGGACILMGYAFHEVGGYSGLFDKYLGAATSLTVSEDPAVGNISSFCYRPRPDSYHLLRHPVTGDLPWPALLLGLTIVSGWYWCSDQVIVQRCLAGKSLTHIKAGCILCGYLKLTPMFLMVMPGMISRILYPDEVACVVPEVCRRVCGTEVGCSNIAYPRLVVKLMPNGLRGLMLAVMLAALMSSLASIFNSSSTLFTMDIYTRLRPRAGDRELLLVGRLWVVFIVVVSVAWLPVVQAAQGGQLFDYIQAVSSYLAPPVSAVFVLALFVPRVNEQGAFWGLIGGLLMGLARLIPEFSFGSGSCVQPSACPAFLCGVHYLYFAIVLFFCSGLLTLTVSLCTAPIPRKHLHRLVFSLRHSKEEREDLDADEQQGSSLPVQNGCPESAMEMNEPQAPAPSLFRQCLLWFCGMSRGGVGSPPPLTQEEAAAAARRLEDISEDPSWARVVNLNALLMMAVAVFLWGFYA
Description: as §1, §2, §3

| Compound | IC50 (human SGLT1) [nM] | IC50 (human SGLT2) [nM] | inhibition at 0.3 µM (human SGLT1) [%] | inhibition at 0.03 µM (human SGLT2) [%] |
| --- | --- | --- | --- | --- |
| [2H]C1([2H])Cc2ccc(Cc3cc([C@@H]4O[C@H](CO)[C@@H](O)[C@H](O)[C@H]4O)c(F)cc3C3CC3)cc21 [Compound 74, (2S,3R,4R,5S,6R)-2-(4-cyclopropyl-5-((2,2-dideuterium-1,2-dihydrocyclobutabenzen-4-yl)methyl)-2-fluorophenyl)-6-(hydroxymethyl)-tetrahydro-2H-pyran-3,4,5-triol] | 12 | 10 |  |  |
| OC[C@H]1O[C@@H](c2cc(Cc3ccc4c(c3)CC4)c(Cl)cc2O)[C@H](O)[C@@H](O)C1(F)F [Compound 102] | 12 | 2 |  |  |
| [2H]C1([2H])Cc2ccc(Cc3cc([C@@H]4O[C@H](CO)[C@@H](O)[C@H](O)[C@H]4O)c(F)cc3Cl)cc21 [Compound 71, (2S,3R,4R,5S,6R)-2-{5-[(8,8-dideuterium)bicyclo[4.2.0]octa-1(6),2,4-trien-3-ylmethyl]-4-chloro-2-fluorophenyl}-6-(hydroxymethyl)oxane-3,4,5-triol] | 71 | 3 |  |  |
| CCc1cc(OC(F)(F)F)c([C@@H]2O[C@H](CO)[C@@H](O)[C@H](O)[C@H]2O)cc1Cc1ccc2c(c1)CC2 [Compound 35, (2S,3R,4R,5S,6R)-2-(5-((1,2-dihydrocyclobutabenzen-4-yl)methyl)-4-ethyl-2-(trifluoromethoxy)phenyl)-6-(hydroxymethyl)-tetrahydro-2H-pyran-3,4,5-triol] |  |  | 29 | 45 |
| CCc1ccc([C@@H]2O[C@H](CO)[C@@H](O)[C@H](O)[C@H]2O)cc1Cc1ccc2c(c1)CC2 [Compound 4, (2S,3R,4R,5S,6R)-2-(3-((1,2-dihydrocyclobutabenzen-4-yl)methyl)-4-ethylphenyl)-6-(hydroxymethyl)-tetrahydro-2H-pyran-3,4,5-triol] | 18 | 3 |  |  |
| [2H]C1([2H])Cc2ccc(Cc3cc([C@@H]4O[C@H](CO)[C@@H](O)[C@H](O)[C@H]4O)c(O)cc3C)cc21 (single isomer, unassigned) [Compound 61] | 7 | 4 |  |  |
| [2H]C1([2H])Cc2ccc(Cc3cc([C@@H]4O[C@H](CO)[C@@H](O)[C@H](O)[C@H]4O)c(OC)cc3Cl)cc21 [Compound 67, (2S,3R,4R,5S,6R)-2-(5-{[(8,8-dideuterium)bicyclo[4.2.0]octa-1(6),2,4-trien-3-yl]methyl}-4-chloro-2-methoxyphenyl)-6-(hydroxymethyl)oxane-3,4,5-triol] | 48 | 2 |  |  |
| [2H]C1([2H])Cc2cc(Cc3cc([C@@H]4O[C@H](CO)[C@@H](O)[C@H](O)[C@H]4O)c(OC)cc3OC)ccc21 (single isomer, unassigned) [Compound 84] | 63 | 2 |  |  |
| OC[C@H]1O[C@@H](c2ccc(C3CC3)c(Cc3ccc4c(c3)CC4)c2)[C@H](O)[C@@H](O)[C@@H]1O [Compound 5, (2S,3R,4R,5S,6R)-2-(4-cyclopropyl-3-((1,2-dihydrocyclobutabenzen-4-yl)methyl)phenyl)-6-(hydroxymethyl)-tetrahydro-2H-pyran-3,4,5-triol] | 32 | 5 |  |  |
| COc1ccc([C@@H]2O[C@H](CO)[C@@H](O)[C@H](O)[C@H]2O)cc1Cc1ccc2c(c1)CC2 [Compound 3, (2S,3R,4R,5S,6R)-2-(3-((1,2-dihydrocyclobutabenzen-4-yl)methyl)-4-methoxyphenyl)-6-(hydroxymethyl)-tetrahydro-2H-pyran-3,4,5-triol] | 39 | 3 |  |  |
| [2H]C([2H])(c1ccc2c(c1)CC2)c1cc([C@@H]2O[C@H](CO)[C@@H](O)[C@H](O)[C@H]2O)c(OC)cc1CC [Compound 60, (2S,3R,4R,5S,6R)-2-(5-(dideuterium(1,2-dihydrocyclobutabenzen-4-yl)methyl)-4-ethyl-2-methoxyphenyl)-6-(hydroxymethyl)-tetrahydro-2H-pyran-3,4,5-triol] | 83 | 3 |  |  |
| [2H]C1([2H])Cc2ccc(Cc3cc([C@@H]4O[C@H](CO)[C@@H](O)[C@H](O)[C@H]4O)c(F)cc3C)cc21 [Compound 70, (2S,3R,4R,5S,6R)-2-(5-{[(8,8-dideuterium)bicyclo[4.2.0]octa-1(6),2,4-trien-3-yl]methyl}-2-fluoro-4-methylphenyl)-6-(hydroxymethyl)oxane-3,4,5-triol] |  |  | 85 | 35 |
| OC[C@H]1O[C@@H](c2cc(Cc3ccc4c(c3)CC4)c(F)cc2O)[C@H](O)[C@@H](O)[C@@H]1O [Compound 19, (2S,3R,4R,5S,6R)-2-(5-(bicyclo[4.2.0]octa-1(6),2,4-trien-3-ylmethyl)-4-fluoro-2-hydroxyphenyl)-6-(hydroxymethyl)tetrahydro-2H-pyran-3,4,5-triol] |  |  | 62 | 38 |
| CCOc1cc(Cl)c(Cc2ccc3c(c2)CC3)cc1[C@@H]1O[C@H](CO)C(F)(F)[C@H](O)[C@H]1O [Compound 104] | 14 | 1 |  |  |
| [2H]c1c(C)c(Cc2ccc3c(c2)CC3)cc([C@@H]2O[C@H](CO)[C@@H](O)[C@H](O)[C@H]2O)c1O (single isomer, unassigned) [Compound 121] | 11 | 2 |  |  |
| [2H]C([2H])([2H])Oc1cc(C)c(C([2H])([2H])c2ccc3c(c2)CC3)cc1[C@@H]1O[C@H](CO)[C@@H](O)[C@H](O)[C@H]1O [Compound 119] | 41 |  |  |  |
| [2H]C([2H])(c1ccc2c(c1)CC2)c1cc([C@@H]2O[C@H](CO)[C@@H](O)[C@H](O)[C@H]2O)c(O)cc1Cl [Compound 55, (2S,3R,4R,S,6R)-2-(5-[bicyclo[4.2.0]octa-1(6),2,4-trien-3-yl(dideuterium)methyl]-4-chloro-2-hydroxyphenyl)-6-(hydroxymethyl)oxane-3,4,5-triol] | 7 |  |  |  |
| [2H]C([2H])([2H])Oc1cc(CC)c(Cc2ccc3c(c2)CC3)cc1[C@@H]1O[C@H](CO)[C@@H](O)[C@H](O)[C@H]1O [Compound 111] | 13 |  |  |  |
| [2H]C([2H])([2H])Oc1cc(C)c(Cc2ccc3c(c2)CC3)cc1[C@@H]1O[C@H](CO)[C@@H](O)[C@H](O)[C@H]1O [Compound 110] | 15 |  |  |  |
| OC[C@H]1O[C@@H](c2cc(Cc3ccc4c(c3)CC4)c(Cl)cc2O)[C@H](O)[C@@H](O)[C@@H]1O [Compound 8, (2S,3R,4R,5S,6R)-2-(5-(bicyclo[4.2.0]octa-1(6),2,4-trien-3-ylmethyl)-4-chloro-2-hydroxyphenyl)-6-(hydroxymethyl)oxane-3,4,5-triol] | 5 |  |  |  |
